Results on 8 compounds are retold here after PubChem BioAssay AID1259407 (Chemical Carcinogenesis Research Information System (CCRIS), 2018).

The test system of the data set is CCRIS mutagenicity, Ames/micronucleus/aberration tests. The data set is described as follows: CCRIS mutagenicity studies.
The mark [1] stands for this setting: Test System: AMES SALMONELLA TYPHIMURIUM, Strain/Indicator: TA98(1,8-DNP6), Metabolic Activation: NONE, Method: STANDARD PLATE.
[2] abbreviates: Test System: AMES SALMONELLA TYPHIMURIUM, Strain/Indicator: TA98, Metabolic Activation: NONE, Method: STANDARD PLATE.
[3] abbreviates: Test System: AMES SALMONELLA TYPHIMURIUM, Strain/Indicator: TA100, Metabolic Activation: NONE, Method: STANDARD PLATE.
The mark [4] stands for this setting: Test System: AMES SALMONELLA TYPHIMURIUM, Strain/Indicator: TA98, Metabolic Activation: NONE, Method: PREINCUBATION
Setting [5] is: Test System: AMES SALMONELLA TYPHIMURIUM, Strain/Indicator: TA100, Metabolic Activation: NONE, Method: PREINCUBATION
Setting [6] is: Test System: UDS HUMAN HEPATOCYTES, Strain/Indicator: THY INCORP, Metabolic Activation: NONE, Method: AUTORADIOGRAPHY
Where [7] appears, read: Test System: UDS RAT HEPATOCYTES, Strain/Indicator: THY INCORP, Metabolic Activation: NONE, Method: AUTORADIOGRAPHY

Active and inactive are the calls of the source. No rule for the calls is given here.

As to `O=[N+]([O-])c1ccc2ccc3cccc([N+](=O)[O-])c3c2c1`, the mutagenic call is “active; positive” under setting [1]; “active; positive” (Test System: AMES SALMONELLA TYPHIMURIUM, Strain/Indicator: TA98(NR), Metabolic Activation: NONE, Method: STANDARD PLATE); “active; positive” under setting [2]; “active; positive” under setting [3]; “active; positive” (Test System: AMES SALMONELLA TYPHIMURIUM, Strain/Indicator: YG1021, Metabolic Activation: NONE, Method: STANDARD PLATE); “active; positive” (Test System: AMES SALMONELLA TYPHIMURIUM, Strain/Indicator: YG1024, Metabolic Activation: NONE, Method: STANDARD PLATE). For the same compound, the mutagenic call reads like this: (Test System: AMES SALMONELLA TYPHIMURIUM, Strain/Indicator: YG1026, Metabolic Activation: NONE, Method: STANDARD PLATE) “active; positive”; (Test System: AMES SALMONELLA TYPHIMURIUM, Strain/Indicator: YG1029, Metabolic Activation: NONE, Method: STANDARD PLATE) “active; positive”.

`CCCCCN`: the mutagenic call is “inactive; negative” (Test System: AMES SALMONELLA TYPHIMURIUM, Strain/Indicator: TA98, Metabolic Activation: HAMSTER, LIVER, S-9, AROCLOR 1254 (10%), Method: PREINCUBATION); “inactive; negative” under setting [4]; “inactive; negative” (Test System: AMES SALMONELLA TYPHIMURIUM, Strain/Indicator: TA98, Metabolic Activation: RAT, LIVER, S-9, AROCLOR 1254 (10%), Method: PREINCUBATION); “inactive; negative” (Test System: AMES SALMONELLA TYPHIMURIUM, Strain/Indicator: TA100, Metabolic Activation: HAMSTER, LIVER, S-9, AROCLOR 1254 (10%), Method: PREINCUBATION); “inactive; negative” under setting [5]; “inactive; negative” (Test System: AMES SALMONELLA TYPHIMURIUM, Strain/Indicator: TA100, Metabolic Activation: RAT, LIVER, S-9, AROCLOR 1254 (10%), Method: PREINCUBATION). In addition, the mutagenic call is “inactive; negative” (Test System: AMES SALMONELLA TYPHIMURIUM, Strain/Indicator: TA1535, Metabolic Activation: HAMSTER, LIVER, S-9, AROCLOR 1254 (10%), Method: PREINCUBATION); “inactive; negative” (Test System: AMES SALMONELLA TYPHIMURIUM, Strain/Indicator: TA1535, Metabolic Activation: NONE, Method: PREINCUBATION); “inactive; negative” (Test System: AMES SALMONELLA TYPHIMURIUM, Strain/Indicator: TA1535, Metabolic Activation: RAT, LIVER, S-9, AROCLOR 1254 (10%), Method: PREINCUBATION); “inactive; negative” (Test System: AMES SALMONELLA TYPHIMURIUM, Strain/Indicator: TA1537, Metabolic Activation: HAMSTER, LIVER, S-9, AROCLOR 1254 (10%), Method: PREINCUBATION); “inactive; negative” (Test System: AMES SALMONELLA TYPHIMURIUM, Strain/Indicator: TA1537, Metabolic Activation: NONE, Method: PREINCUBATION); “inactive; negative” (Test System: AMES SALMONELLA TYPHIMURIUM, Strain/Indicator: TA1537, Metabolic Activation: RAT, LIVER, S-9, AROCLOR 1254 (10%), Method: PREINCUBATION).

Regarding `Clc1ccc2oc3ccccc3c2c1`, the mutagenic call is “active; positive” under setting [2]; “active; positive” (Test System: AMES SALMONELLA TYPHIMURIUM, Strain/Indicator: TA98, Metabolic Activation: RAT, LIVER, S-9, PHENOBARBITAL AND NAPHTHOFLAVONE, Method: STANDARD PLATE); “inactive; negative” under setting [3]; “inactive; negative” (Test System: AMES SALMONELLA TYPHIMURIUM, Strain/Indicator: TA100, Metabolic Activation: RAT, LIVER, S-9, PHENOBARBITAL AND NAPHTHOFLAVONE, Method: STANDARD PLATE).

As for `C[C-](C)[N+](=O)[O-]`, the mutagenic call by setting is: under setting [4], “active; positive”; (Test System: AMES SALMONELLA TYPHIMURIUM, Strain/Indicator: TA98, Metabolic Activation: RAT, LIVER, S-9, AROCLOR 1254, Method: PREINCUBATION) “active; positive”; under setting [5], “active; positive”; (Test System: AMES SALMONELLA TYPHIMURIUM, Strain/Indicator: TA100, Metabolic Activation: RAT, LIVER, S-9, AROCLOR 1254, Method: PREINCUBATION) “active; positive”; (Test System: AMES SALMONELLA TYPHIMURIUM, Strain/Indicator: TA100, Metabolic Activation: RAT, LIVER, S-9, AROCLOR, Method: PREINCUBATION) “active; positive”; (Test System: AMES SALMONELLA TYPHIMURIUM, Strain/Indicator: TA102, Metabolic Activation: NONE, Method: PREINCUBATION) “active; positive”. In addition, the mutagenic call reads like this: (Test System: AMES SALMONELLA TYPHIMURIUM, Strain/Indicator: TA102, Metabolic Activation: RAT, LIVER, S-9, AROCLOR 1254, Method: PREINCUBATION) “active; positive”; (Test System: AMES SALMONELLA TYPHIMURIUM, Strain/Indicator: TA102, Metabolic Activation: RAT, LIVER, S-9, AROCLOR, Method: PREINCUBATION) “active; positive”; (Test System: UDS CHINESE HAMSTER V-79 CELLS, Metabolic Activation: NONE, Method: AUTORADIOGRAPHY) “active; positive”; (Test System: UDS CHINESE HAMSTER V-79 CELLS, Strain/Indicator: V-79-MZ/CYTIDINE INCORPORATION, Metabolic Activation: NONE, Method: AUTORADIOGRAPHY) “inactive; negative”; (Test System: UDS CHINESE HAMSTER V-79 CELLS, Strain/Indicator: V-79-RHST20/CYTIDINE INCORPORATION, Metabolic Activation: NONE, Method: AUTORADIOGRAPHY) “inactive; negative”; (Test System: UDS CHINESE HAMSTER V-79 CELLS, Strain/Indicator: V-79-RHSTA/CYTIDINE INCORPORATION, Metabolic Activation: NONE, Method: AUTORADIOGRAPHY) “inactive; negative”. Also, the mutagenic call reads like this: (Test System: UDS CHINESE HAMSTER V-79 CELLS, Strain/Indicator: V-79-RPST-IV/CYTIDINE INCORPORATION, Metabolic Activation: NONE, Method: AUTORADIOGRAPHY) “active; positive”; under setting [6], “active; positive”; (Test System: UDS MOUSE HEPATOCYTES, Strain/Indicator: THY INCORP, Metabolic Activation: NONE, Method: AUTORADIOGRAPHY) “active; positive”; under setting [7], “active; positive”.

On to `Nc1ccc(-c2ccc(N)cc2[N+](=O)[O-])cc1`, for which the mutagenic call is, setting by setting: under setting [1], “active; positive”; (Test System: AMES SALMONELLA TYPHIMURIUM, Strain/Indicator: TA98(1,8-DNP6), Metabolic Activation: S-9, Method: STANDARD PLATE) “active; positive”; under setting [2], “active; positive”; (Test System: AMES SALMONELLA TYPHIMURIUM, Strain/Indicator: TA98, Metabolic Activation: S-9, Method: STANDARD PLATE) “active; positive”; under setting [3], “inactive; negative”; (Test System: AMES SALMONELLA TYPHIMURIUM, Strain/Indicator: TA100, Metabolic Activation: S-9, Method: STANDARD PLATE) “active; positive”.

Take `Cn1cnc([N+](=O)[O-])c1-c1ccccc1`: the mutagenic call under setting [3] was “inactive; negative”.

Take `CC(C)N(CC(O)c1ccc(NS(C)(=O)=O)cc1)N=O` (stereo not drawn): the mutagenic call runs as follows: under setting [6], “active; positive”; under setting [7], “active; positive”.

Regarding `CNc1ccnc(-c2cc(N(C)C)ccn2)c1.CNc1ccnc(-c2cc(N(C)C)ccn2)c1.F[P-](F)(F)(F)(F)F.F[P-](F)(F)(F)(F)F.F[P-](F)(F)(F)(F)F.F[P-](F)(F)(F)(F)F.[NH3+]Cc1ccnc(-c2cc(C[NH3+])ccn2)c1.[Os+2]`, the mutagenic call under setting [2] was “inactive; negative”; the mutagenic call (Test System: AMES SALMONELLA TYPHIMURIUM, Strain/Indicator: TA98, Metabolic Activation: RAT, LIVER, S-9, AROCLOR 1254, Method: STANDARD PLATE) was “inactive; negative”; the mutagenic call under setting [3] was “inactive; negative”; the mutagenic call (Test System: AMES SALMONELLA TYPHIMURIUM, Strain/Indicator: TA100, Metabolic Activation: RAT, LIVER, S-9, AROCLOR 1254, Method: STANDARD PLATE) is “inactive; negative”.
